Literature values in US20220175755A1, “METHODS OF TREATING TOBACCO SMOKING ADDICTION, AND TREATING NICOTINE AND TOBACCO SMOKING ADDICTION” (Pharma Unlimited B.V., priority 2017, published 2022).
Like-named read-outs stand apart in the source and are kept apart here.

Assays:
[1] = transdermal patches
[2] = test system: number of cigarettes smoked by tobacco smokers; conditions: aerosol with an inhaler, dose of 400 μg CBD dissolved in absolute ethanol≈5%
[3] = nicotine replacement therapy using chewing gum

Row | SMILES | blood concentration after stopping chewing the gum (chewing gum, 90 minutes after stopping chewing) | peak nicotine absorption rate (chewing tobacco) | time of peak nicotine absorption rate (chewing tobacco) | peak blood concentration [3] | peak nicotine absorption rate [3] | time for nicotine absorption rate to decline to zero [3] | time of peak nicotine absorption rate [3] | time to peak blood concentration [3] | peak blood concentration (smoking cigarettes) | peak nicotine absorption rate (smoking cigarettes) | time of peak nicotine absorption rate (smoking cigarettes) | time to peak blood concentration (smoking cigarettes) | time for blood concentration to fall to 70% of the peak value (smoking cigarettes, after finishing smoking) | time after applying a patch at which blood nicotine levels start to rise [1] | reduction of the number of cigarettes smoked [2]
1 | CN1CCC[C@H]1c1cccnc1 [nicotine, 3-[(2S)-1-methylpyrrolidine-2-yl]pyridine] | about 7 ng/ml | around 145 μg/min | 5 min | less than 9 ng/ml | around 65 μg/min | about 90 minutes | 10 min | about 30 minutes | around 15 ng/ml | around 200 μg/min | about 5 minutes | about 10 minutes | about 20 minutes | about 30 minutes | –
2 | C=C(C)[C@@H]1CCC(C)=C[C@H]1c1c(O)cc(CCCCC)cc1O [CBD] | – | – | – | – | – | – | – | – | – | – | – | – | – | – | 40%
